Legend:
Assay type in all cases: cell-based, human
[1] = test system: JY cells; assay: Penetratin uptake and endo-lysosomal escape, time-correlated flow cytometry; settings: 50 μM fatty acid 48 h, 5 μM AFDye532- and 5 μM NF-penetratin, 37°C, compared at 900 s, n = 5
Text: (§1) Penetratin ([…]-amide, molecular weight 2245.75 g/mol) was synthesized manually on TentaGel R RAM (Rapp Polymere, Tübingen, Germany), a low crosslinked polystyrene PEG copolymer resin by the solid-phase method of Merrifield with standard Fmoc chemistry, as described in detail in our recent study ([Batta et al., 2020]). After coupling the last arginine, one half of the penetratin was reacted with AFDye532 N-hydroxysuccinimide ester (molecular weight 723.77 g/mol, Fluoroprobes, Scottsdale, AZ, United States), while the other half with 5(6)-carboxynaphthofluorescein N-succinimidyl ester (molecular weight 573.51 g/mol, Darmstadt, Germany). Completion of the coupling was assessed by Kaiser test, which was followed by deprotection and release from the resin. After filtration and precipitation with cold diethyl ether, the crude products were purified by preparative reversed-phase HPLC (JASCO, Victoria, BC, Canada) on a C18 column and lyophilized. The purity of the products (>95%) was assessed by reversed-phase HPLC (JASCO) equipped with an analytical C18 column. […] These values well correlated with the predicted masses of the labeled peptides (2983.59 and 2833.33, respectively).
(§2) Total cellular penetratin uptake and endo-lysosomal escape was determined as described previously ([Batta et al., 2020]). Briefly, control THP-1 or JY cells and those treated with 50 μM ALA, GLA or SA for 48 h at 37°C were incubated in the continuous presence of 5 μM AFDye532-penetratin, 5 μM NF-penetratin and 0.25 μg/ml DAPI at 37°C in the thermostated sample holder of a FACS Aria III flow cytometer. The fluorescence intensity of DAPI was measured using an excitation at 405 nm and an emission filter 450/20 nm. AFDye532 and NF were excited at 488 and 561 nm, respectively, and their fluorescence was determined using emission filters 530/30 and 670/14 nm, respectively. Measurements started immediately after addition of DAPI and penetratin and continued for 20 min at 37°C. Experimental data were analyzed first in FCS Express. Time-correlated fluorescence intensity values of DAPI-negative living cells were exported after spectral compensation and the moving averages of samples were calculated with a window size of 10 s. […] During analysis, fluorescence intensity values were first normalized to the average intensity in the first time window, which was followed by calculation of the fluorescence ratio from the normalized values.

[2] = test system: THP-1 cells; assay: as above; settings: 50 μM fatty acid 48 h, 5 μM AFDye532- and 5 μM NF-penetratin, 37°C, compared at 900 s, n = 5
Text: as §1, §2

[3] = test system: JY cells; assay: Membrane dipole potential, di-8-ANEPPS excitation ratio, spectrofluorometry; settings: fatty acid 12.5-50 μM for 48 h, result at maximal 50 μM, n = 5
Description: (§3) The human acute monocytic leukemia-derived cell line THP-1 and the human Epstein-Barr virus (EBV) transformed lymphoblastoid cell line JY were obtained from the American Type Culture Collection (Manassas, VA, United States) and cultivated according to their specifications. […] As controls, cells were treated with the corresponding amounts of native MβCD complexes not containing sterols. To study the effects of fatty acids, cells were incubated for 48 h in medium supplemented with saturated stearic acid (SA, Sigma Aldrich), ω-3 polyunsaturated α-linolenic acid (ALA, Sigma Aldrich) or ω-6 polyunsaturated γ-linolenic acid (GLA, Sigma Aldrich) at various concentrations ranging from 12.5 to 50 μM. […] After washing, cells were kept on ice and samples were subsequently warmed to 37°C right before measurements carried out with a Fluorolog-3 spectrofluorometer (Horiba Jobin Yvon, Edison, NJ, United States). During measurements, the cuvette holder was kept at 37°C using a circulating water bath. Excitation spectra were recorded between 380 and 550 nm with the detected emission wavelength set to 660 nm in order to minimize effects of possible changes in membrane fluidity ([Clarke and Kane, 1997]). The ratio of fluorescence intensities integrated between excitation wavelengths 410–440 nm and 490–520 nm was calculated for each sample, which positively correlates with the magnitude of DP ([Clarke and Kane, 1997]; [Kovacs et al., 2017]; [Batta et al., 2020]).

[4] = test system: THP-1 cells; assay: as above; settings: fatty acid 12.5-50 μM for 48 h, result at maximal 50 μM, n = 5
Description: as §3

SMILES: CC/C=C\C/C=C\C/C=C\CCCCCCCC(=O)O [ALA, α-linolenic acid]
- ratio of NF and AFDye532 intensities (endo-lysosomal escape of penetratin) vs controls [1]: significantly increased
- ratio of NF and AFDye532 intensities (endo-lysosomal escape of penetratin) vs controls [2]: significantly increased
- Rexc, di-8-ANEPPS [3]: significantly decreased
- Rexc, di-8-ANEPPS [4]: significantly decreased

SMILES: CCCCC/C=C\C/C=C\C/C=C\CCCCC(=O)O [GLA, γ-linolenic acid]
- ratio of NF and AFDye532 intensities (endo-lysosomal escape of penetratin) vs controls [1]: no significant changes
- ratio of NF and AFDye532 intensities (endo-lysosomal escape of penetratin) vs controls [2]: no significant changes
- Rexc, di-8-ANEPPS [3]: significant increases
- Rexc, di-8-ANEPPS [4]: significant increases

From publication PMC8074792, “An ω-3, but Not an ω-6 Polyunsaturated Fatty Acid Decreases Membrane Dipole Potential and Stimulates Endo-Lysosomal Escape of Penetratin” (Frontiers in Cell and Developmental Biology, 2021)
